Test results from patent publication US7928230B2, “Method for modulating GPR119 G protein-coupled receptor and selected compounds” (Bristol-Myers Squibb Company, priority 2007, dated 2011).
Structures can show the parent of a compound that is named as a salt.

Molecular target: T1, human GPR119 (Homo sapiens, UniProt Q8TDV5)
T1 construct: expressed in transfected cells; host or cells: Flp-In-T-REx 293 cells, tetracycline-induced
T1 sequence (Q8TDV5 1-335): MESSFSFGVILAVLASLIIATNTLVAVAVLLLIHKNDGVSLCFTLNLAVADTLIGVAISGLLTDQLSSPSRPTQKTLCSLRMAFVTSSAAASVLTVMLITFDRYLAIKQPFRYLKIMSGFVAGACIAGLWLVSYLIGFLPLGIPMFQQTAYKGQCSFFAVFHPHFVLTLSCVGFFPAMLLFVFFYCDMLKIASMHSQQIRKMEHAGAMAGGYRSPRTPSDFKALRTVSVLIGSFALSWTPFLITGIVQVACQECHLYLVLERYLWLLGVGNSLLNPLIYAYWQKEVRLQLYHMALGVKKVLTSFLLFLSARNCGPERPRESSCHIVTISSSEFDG
Experiment: Human Tet-inducible cAMP assay
Type: cell-based
Conditions: Flp-In-T-REx 293 tetracycline inducible cells expressing GPR119; Hit Hunter cAMP kit; 1 hour at 37° C.; read-out: hGPR119 EC50
Procedure: The in vitro modulation of recombinant human GPR119 was determined as follows.
Human Tet-inducible cAMP Assay
Cell lines expressing GPR119 are generated using the Flp-In-T-REx 293 tetracycline inducible gene expression system are cultured in culture medium comprising the following components: DMFM#11965, 10% FBS, 2 mM L-glutamine, 200 ug/ml Hygromycin B, and 15 ug/ml blasticidin.
For cAMP assays, cells are plated on 96 well plates (e.g., BD Falcon: REF 353948, black side, clear bottom, TC surface) at a density of about 4.5×10^4 cells per well in growth medium containing 1.0 ug/ml tetracycline (1.0 mg/ml stock). The cells are then incubated for 48 hours at 37° C.
Following the incubation, the growth medium is removed from the wells and the wells rinsed (once) with the assay buffer included in the Hit Hunter cAMP kit (100 μl/well). Following the wash, 20 μl of assay buffer is added to each well, followed by addition of 10 μl of a 3× concentration compound working solution. The solution is then mixed. The final concentration range of compound is from about 10^−5M to about 10^−11M. The reagents are then incubated at 37° C. at 5% CO2 for 1 hour.
The manufacturer's protocol may be followed for cAMP determination. The Hit Hunter cAMP kit protocol is outlined for the HIT-T15 cAMP assays described above.
Compounds of the present invention were tested in the Human Tet-inducible cAMP assay described immediately above and the results shown in Table 4 below were obtained.

EC50 [µM]	SMILES
0.087	CCCc1cnc(N2CCC(Oc3ccn(-c4ccc(-n5cncn5)cc4)c(=O)c3)CC2)nc1 [Example 1, 1-(4-(1H-1,2,4-triazol-1-yl)phenyl)-4-(1-(5-propylpyrimidin-2-yl)piperidin-4-yloxy)pyridin-2(1H)-one, hydrochloride salt]
5.19	CC(C)OC(=O)N1CCC(Oc2ccn(-c3ccc(-n4cncn4)cc3)c(=O)c2)CC1 [Example 4, isopropyl 4-(1-(4-(1H-1,2,4-triazol-1-yl)phenyl)-2-oxo-1,2-dihydropyridin-4-yloxy)piperidine-1-carboxylate]
0.094	CCCc1cnc(N2CCC(Oc3ccn(-c4ccc(-n5ccnc5)cc4)c(=O)c3)CC2)nc1 [Example 2, 1-(4-(1H-imidazol-1-yl)phenyl)-4-(1-(5-propylpyrimidin-2-yl)piperidin-4-yloxy)pyridin-2(1H)-one, hydrochloride salt]
0.204	CCCc1cnc(N2CCC(Oc3ccn(-c4ccc(-c5ncco5)cc4)c(=O)c3)CC2)nc1 [Example 3, 1-(4-(oxazol-2-yl)phenyl)-4-(1-(5-propylpyrimidin-2-yl)piperidin-4-yloxy)pyridin-2(1H)-one]
